Measured values: US20140179607A9 (IRONWOOD PHARMACEUTICALS, INC, priority 2009, published 2014)
Positions of bridges follow the written chain, without caps; N, C: chain ends. Non-standard residues stand in square brackets, D forms with d. Residues, ends and D or L forms follow the SMILES beside them. pS = N[C@@H](COP(=O)(O)O)C(=O)O

Columns and labels:
[1] = target: T1, Calf intestinal alkaline phosphatase (CIP) (Bos taurus, UniProt P19111); test: Alkaline phosphatase reaction (dephosphorylation of peptide substrates, LCMS); type: in vitro ADME; conditions: Alkaline phosphatase pH 8, 90 minutes at 37° C.
T1 construct: purchased New England BioLabs, Ipswich, Mass; M0290S
T1 sequence (P19111 20-506): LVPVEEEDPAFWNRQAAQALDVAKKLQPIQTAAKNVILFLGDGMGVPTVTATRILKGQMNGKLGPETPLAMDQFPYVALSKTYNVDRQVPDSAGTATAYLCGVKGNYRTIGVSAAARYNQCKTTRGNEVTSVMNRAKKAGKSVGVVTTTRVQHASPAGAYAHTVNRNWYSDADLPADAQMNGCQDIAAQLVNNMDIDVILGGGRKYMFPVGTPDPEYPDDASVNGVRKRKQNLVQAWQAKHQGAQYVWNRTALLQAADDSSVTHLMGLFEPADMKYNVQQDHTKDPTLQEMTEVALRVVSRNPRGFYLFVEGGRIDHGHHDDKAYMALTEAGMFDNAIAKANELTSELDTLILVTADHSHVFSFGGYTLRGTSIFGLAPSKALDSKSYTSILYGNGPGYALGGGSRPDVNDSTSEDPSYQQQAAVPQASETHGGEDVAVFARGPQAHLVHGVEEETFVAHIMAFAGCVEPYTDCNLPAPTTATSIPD
Description: (§1) For the alkaline phosphatase reactions, peptide stocks were prepared at 1 mg/mL in 0.1 M Tris-HCl pH 8, which were stored at −20° C. until assays were conducted. For the acid phosphatase reactions, peptide stocks were prepared at 1 mg/mL in 50 mM sodium phosphate pH 6, which was stored at −20° C. until assays were conducted.
(§2) Calf intestinal alkaline phosphatase (CIP) was obtained from New England BioLabs, Ipswich, Mass. Cat # M0290S. The CIP reaction solution was prepared by dilution with buffer (50 mM KCl, 10 mM Tris-HCl pH 8, 1 mM MgCl2, 50% glycerol) to 0.5 units/μL. The alkaline phosphatase reaction solutions were assembled in 20 μL quantities containing: • 2 μL 10× CIP buffer (1M NaCl, 500 mM Tris-HCl pH 8, 100 mM MgCl2) • 2 μL peptide stock (1 mg/mL) • 12 μL H2O • 4 μL alkaline phosphatase (0, 0.5 or 2 units)
(§3) The reaction solutions were mixed gently and incubated for 90 minutes at 37° C. These reaction solutions were stored at −20° C. until analysis. For analysis, the reaction solutions were diluted from 7.5 μL of CIP treated peptide to 50 μL with 0.1% formic acid in water to a final concentration of 10 μM.
(§4) Control reactions were assembled for enzyme activity containing 10 mM p-nitrophenylphosphate in place of peptide. After incubation, the reactions were diluted with 0.1 mL of 100 mM borate buffer pH 9 and read at the absorbance of 405 nm to monitor p-nitrophenol appearance.

[2] = system: T2, calf intestinal alkaline phosphatase (CIP); test: as above; type: in vitro ADME; conditions: calf intestinal alkaline phosphatase (CIP); Alkaline phosphatase pH 8, 90 minutes at 37° C.
T2 construct: purchased New England BioLabs, Ipswich, Mass; M0290S
Description: as §1, §2, §3, §4

[3] = system: Potato acid phosphatase (PoAP); test: Acid phosphatase reaction, potato acid phosphatase; type: in vitro ADME; conditions: Potato acid phosphatase pH 5, 90 minutes at 37° C.
Description: as §1
(§5) Potato acid phosphatase (PoAP) was obtained from Sigma, St. Louis, Miss. Cat #P1146 and human prostate acid phosphatase (HuPrAP) was obtained from MP Biochemicals, Solon, Ohio. Cat # 153872. The acid phosphatases were dissolved to provide a solution containing 0.5 units AP/μL using 50 mM sodium acetate pH 5, 0.2 mM MgCl2. The acid phosphatase reactions were assembled in 20 μL quantities containing: • 2 μL 10× acid phosphatase buffer (500 mM sodium acetate pH 5, 2 mM MgCl2) • 2 μL peptide stock (1 mg/mL) • 12 μL H2O • 4 μL acid phosphatase (0.5 or 2 units)
(§6) The reaction solutions were mixed gently and incubated for 90 minutes at 37° C. The reaction solutions were stored at −20° C. for later analysis. For analysis, 7.5 μL acid phosphatase reactions were diluted to 50 μL with 0.1% formic acid in water to a final concentration of 10 μM. The control reactions for enzyme activity were assembled and diluted to 10 mM p-nitrophenylphosphate in place of peptide. After incubation, the reactions were diluted with 0.1 mL of 100 mM borate buffer pH 9 and read at the absorbance of 405 nm to monitor p-nitrophenol appearance.

[4] = system: potato acid phosphatase (PoAP); test: Acid phosphatase reaction, potato acid phosphatase; type: in vitro ADME; conditions: potato acid phosphatase (PoAP); Potato acid phosphatase pH 5, 90 minutes at 37° C.
Description: as §1, §5, §6

[5] = target: T3, human prostate acid phosphatase (HuPrAP) (Homo sapiens, UniProt P15309); test: Acid phosphatase reaction, human prostate acid phosphatase; type: in vitro ADME; conditions: Human prostatic acid phosphatase pH 5, 90 minutes at 37° C.
T3 construct: purchased MP Biochemicals, Solon, Ohio 153872
T3 sequence (P15309 33-386): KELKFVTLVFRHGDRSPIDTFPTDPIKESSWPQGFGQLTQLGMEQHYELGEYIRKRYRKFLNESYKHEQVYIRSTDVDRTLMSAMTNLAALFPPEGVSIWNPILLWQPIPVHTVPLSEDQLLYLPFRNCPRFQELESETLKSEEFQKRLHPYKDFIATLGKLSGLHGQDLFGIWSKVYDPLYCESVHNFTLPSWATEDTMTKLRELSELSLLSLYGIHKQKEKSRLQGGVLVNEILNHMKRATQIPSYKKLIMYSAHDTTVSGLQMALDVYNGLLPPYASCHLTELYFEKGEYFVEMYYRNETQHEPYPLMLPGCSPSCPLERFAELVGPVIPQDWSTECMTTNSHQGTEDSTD
Description: as §1, §5, §6

[6] = system: female CD-1 mice; test: Gastrointestinal transit in mice (charcoal meal); type: in vivo; conditions: oral gavage, % distance travelled by charcoal front
Description: The purpose of the assay was to test the effect of the guanylate cyclase C agonist peptides on in vivo gastrointestinal transit in mice.
For the assay, female CD-1 mice (n=10 per group) weighing 25-30 g were fasted overnight and given access to water ad libitum. Activated charcoal (20 g; 100 mesh; Sigma cat# 242276) was suspended in 200 mL gum arabic (100 mg/mL), and stirred for at least one hour. Test peptides were prepared in a 20 mM Tris pH 6.9 vehicle.
Test peptide and vehicle were administered in 200 μL doses by oral gavage. Seven minutes after dosing the test peptides, 200 μL of the charcoal/gum arabic suspension was dosed by oral gavage. […] The total length of the small intestine was measured from the pyloric junction to the ileocaecal junction. The distance travelled by the charcoal was measured from the pyloric junction to the charcoal front. The Distance Travelled (%) was determined as (distance travelled by charcoal/total length of the small intestine)×100. Data were entered into the GraphPad Prism software program and analyzed by ANOVA using a Bonferroni multiple comparison test post-hoc. Plots of data and ED50 were also determined using the GraphPad Prism software package.
The dose-dependent effects of acute doses of Peptide 4, Peptide 1, Peptide 2, the dephosphorylated form of Peptide 1 and the dephosphorylated form of Peptide 2 on GI transit were determined in female CD mice. […]

[7] = system: ligated rat duodenal loops; test: Fluid secretion in rat intestinal loops; type: in vivo, rats
Description: The effect of GC-C agonist peptides on secretion were studied by injecting GC-C agonist peptides described herein directly into an isolated loop in wild-type rats.
Loops were isolated by surgically ligating three loops in the small intestine of the rat. The methodology for ligated loop formation was similar to that described in (London et al., 1997, Am J Physiol, p. G93-105). The loops were roughly centered and at lengths of 1-3 cm. The loops were injected with 200 μl of either peptide/GC-C agonist (0.1-5 μg) or vehicle (20 mM Tris, pH 7.5 or Krebs Ringer, 10 mM Glucose, HEPES buffer (KRGH)). Following a recovery time of up to 90 minutes the loops were excised. Weights were recorded for each loop before and after removal of the fluid contained therein. The length of each loop was also recorded. A weight to length ratio (W/L) for each loop was calculated to determine the effects of the GC-C agonist peptide described herein on secretion. Loop fluid volume was also determined.
Data showing increases in fluid secretion, pH increase and bicarbonate secretion in ligated duodenal loops in rats are shown in FIG. 2 and Table 8. […] Table 8 provides the results in ligated rat duodenal loops using 2.5 μg of peptide per loop.

[8] = 2.5 μg of peptide per loop, duodenal loops

Row | Compound | Dephospho (%) [1] [%] | remaining at 1.5 h, 0.1 mg/mL [2] [%] | Dephospho (%) [3] [%] | remaining at 1.5 h, 0.1 mg/mL [4] [%] | Dephospho (%) [5] [%] | remaining at 1.5 h, 0.1 mg/mL ([5]; human prostate acid phosphatase (HuPrAP)) [%] | ED50 (μg/kg), acceleration of upper GI transit [6] [µg/kg] | Rate of HCO3^− accumulation [7, 8] [Meq/min/cm] | Rate of fluid accumulation [7, 8] [µL/min/cm] | pH [7, 8] | Induction of fluid accumulation / duodenal fluid secretion (FIG. 2) ([7]; ligated rat duodenal loops)
1 | CC(C)C[C@@H]1NC(=O)[C@H](COP(=O)(O)O)NC(=O)[C@@H]2CSSC[C@@H]3NC(=O)[C@H](C)NC(=O)[C@@H]4CCCN4C(=O)[C@H](CC(N)=O)NC(=O)[C@H](CSSC[C@H](N)C(=O)N2)NC(=O)[C@H](CSSC[C@@H](C(=O)N[C@@H](Cc2ccc(O)cc2)C(=O)O)NC(=O)CNC(=O)[C@H]([C@@H](C)O)NC3=O)NC1=O [Peptide 1, CCpSLCCNPACTGCY] (H-CC[pS]LCCNPACTGCY-OH; disulfide 1-6, 2-10, 5-13 (inferred); N-terminus and C-terminus assumed) | 100 | 0 | 22.1 | 77.8 | 6.2 | 93.8 |  |  |  |  | 
2 | CCEFCCNPACTGCY [Peptide 4, GC-C agonist peptide with Glu in place of phosphoserine, used as comparator] |  |  |  |  |  |  | 2.06 | 0.00008 | 2.0 | 8.2 | promote duodenal fluid secretion
